Target: T1, N-AGT enzyme (AGT-mGluR2 fusion protein) (Homo sapiens, UniProt P16455)
T1 construct: fused on or other part: type 2 metabotropic glutamate receptor (mGluR2)
Assay: Enzymatic reactivity test in a cell model, N-AGT mutant
Assay type: cell-based
Details: living cells, N-AGT mutant; labeling 1 h at 37° C.; read-out: half saturation concentration of the enzyme
Description: This procedure makes it possible to test the reactivity of substrates according to the invention with an AGT expressed by COS 7 cells in the form of a fusion protein with the type 2 glutamate transmembrane receptor (mGluR2).
Various mutants of AGT were analyzed in this study: SNAP-tag-ST26 or CLIP-tag from Covalys or the N-AGT mutant described by Gronemeyer et al. (Protein Engineering, Design & Selection, Vol. 19, No. 7, pp. 309-316, 2006).
The transient transfection of the cells is carried out by electroporation using a Biorad electroporator: 10 million cells are transfected by 1 μg SNAP-tag-mGluR2+3 μg pcdna3.1 in a final volume of 300 μl. The electroporation parameters are: 280 V & 1000 μF. […]
The labeling of the AGT-mGluR2 fusion protein takes place in 100 μl of complete medium with increasing concentrations of BG-fluorophore or BG-L1-A-L2-fluorophore according to the invention for 1 h at 37° C. Before the reading, 4 washing operations are carried out with 100 μl of Tris-Krebs.
For the substrates bearing fluorophores ATTO647 (example 2), DY647 (examples 1 and 5) and fluorescein-5-EX (example 3), the reading is carried out in 100 μl of Tris-Krebs in direct fluorescence at 682 nm on a Rubystar machine, and at 520 nm for those bearing fluorescein-5-EX (example 3). […]

T1 sequence (P16455 whole entry, looked up, the tested form may be a part): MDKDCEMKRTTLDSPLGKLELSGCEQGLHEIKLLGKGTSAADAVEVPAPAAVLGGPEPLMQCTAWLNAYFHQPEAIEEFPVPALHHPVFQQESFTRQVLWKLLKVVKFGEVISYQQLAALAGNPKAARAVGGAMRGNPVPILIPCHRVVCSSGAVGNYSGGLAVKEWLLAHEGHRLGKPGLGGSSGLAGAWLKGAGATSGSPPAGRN

## Tb(KR)-methylbenzamide-BG [BG-methylbenzamide-Tb(KR)]
  EC50: 6.4 nM

Reference: US9024022B2, “Substrates of O6-alkylguanine-DNA alkyltransferase and mutants thereof” (Cis Bio International, priority 2008, dated 2015)
